From article PMC12390126, “Human Skin Permeation of Ethoxy- and Propoxypropanol Commonly Found in Water-Based Products” (Toxics, 2025)
“Also recorded” adds a separate entry of the source.

Tests used:
[1] = In vitro flow-through diffusion cell skin permeation; assay type: in vitro ADME, human; conditions: for first quantified in the receptor fluid after application: Figure 1A, first 3 h of exposure; for permeability rate J diluted in water compared to neat: aqueous 50:50 versus neat; for time to permeate previously frozen human skin: aqueous PGEs applied
Description: Human abdominal full thickness skin was obtained as surgical waste from the Lausanne University Hospital (CHUV) and the Department of Musculoskeletal Medicine (DAL) Biobank, Switzerland, according to the Swiss ethics in the canton Vaud (CER-VD: Commission cantonal d’éthique de la recherche sur l’être humain, ethical protocol 264/12). The surgeon obtained written consent from the patients before the start of the operation. The collected skin was anonymized, and only sex and age were provided for this study. Human skin was obtained directly after the surgery and immediately dermatomed to a thickness of 800 µm (Acculan®II, B. Braun/Aesculap, Sempach, Switzerland) to account for any potential storage effects on its in vitro mass balance. The experiments were run with triplicate skin samples (n = 3) from three different donors giving a total of nine samples for each experiment. The skin samples used for this study were stored at −20 °C for up to four years. The experiments were performed only when a sufficient number of skin samples was available from three different donors.
The in vitro flow-through diffusion cell experiments were used to assess skin permeation kinetics after neat and aqueous application, separately. The abdominal human frozen skin was thawed for one hour at room temperature and cut into disks (exposed area of 1 cm^2). These were mounted onto the diffusion cells between the donor and the receptor chamber filled with saline water (0.9% NaCl (aq), 8 mL). Four different experimental conditions were used: application of solutions containing either PGEE or PGPE (neat) and application of aqueous solutions of PGEE or PGPE (50:50 v/v mixture). Each experiment was performed with triplicate cells from three different donors ([…] diffusion cells exposed to PGE per experimental condition) and one control cell per skin donor (n = 3 diffusion cells not exposed to PGE). The trans epidermal water loss (TEWL; VapoMeter wireless, Delfin Technologies Ltd., Kuopio, Finland) was measured for each skin disk to assess skin sample integrity. Skin samples with a TEWL greater than 11 g/m^2/h were excluded. TEWL was measured again at the end of each experiment to confirm skin integrity throughout the experiment.
The in vitro flow-through diffusion cell experiments were carried out using a rack-mounted system consisting of nine in-line jacketed flow-through diffusion cells (PermeGear® from SES Analytical System, Bechenheim, Germany). A peristaltic pump (Ismatec IPC-N, IDEX Health and Science GmbH, Wertheim-Mondfeld, Germany) operated at a flow rate of 200 µL/min for the first 180 min to ensure that the transition point—when the glycol ethers reached the receptor fluid—was accurately captured for these rapidly diffusing substances. The pump rate was then adjusted to 40 µL/min for the remaining time until 24 h. These collection times and flow rates were set to achieve steady state. The diffusion cell system was equipped with a magnetic stirrer in each cell to ensure a constant and uniform mixing of the substances in the reservoir fluid. The diffusion cells were kept at 32 °C with a heated water bath (Haake SC 100 Digital Immersion Circulator, Thermo Scientific, Newington, NH, USA). A fraction collector (FC 204, Gilson Inc., Middleton, WI, USA) automatically sampled the reservoir fluid at different time points for 24 h, i.e., at 0.5, 1, 1.5, 2, 2.5, 3, 6, 9, 12, 15, 18, 21, and 24 h. PGPE (>95%) and PGEE (>99%) (Chemic Brunschwig AG, Basel, Switzerland) were applied separately onto the skin samples either neat substances or aqueous solutions (Milli-Q Advantage A10 System, Millipore AG, MerckMillipore, Schaffhouse, Switzerland). We applied 500 µL (aqueous application) and 200 µL (neat application) of them to increase the likelihood of reaching steady state permeation conditions. All collected samples were stored at 4 °C after the experiment. […]

[2] = Mass balance of flow-through diffusion cell experiments; assay type: in vitro ADME, human; conditions: for Receptor Chamber (percentage of applied dose): remaining fluid at end
Description: A mass balance was performed only for flow-through diffusion cell experiments following the OECD guidelines, where the mean recovery should be 100 ± 10% [20]. The following components of the test system were analyzed to determine recovery: donor chamber, skin, and receptor chamber. The donor chamber was rinsed three times with 500 µL of water (donor chamber samples), the skin disk was sonicated three times for five minutes in water (skin samples), and the remaining fluid receptor chamber was collected (receptor chamber samples). If liquid was present in the donor chamber at the end of the experiment, it was also collected and analyzed with the donor chamber samples. PGE concentrations were quantified in all mass balance samples by GC-MS/MS, i.e., donor chamber rinsing water, water collected after sonication of skin, and remaining fluid receptor chamber. Mean concentrations of PGEE and PGPE were calculated for all cells in both conditions (neat or aqueous), and the results were reported as the percentage of the applied dose.

[3] = design: method as in earlier work; conditions: cited from earlier work

Compound: CCOCC(C)O (stereo not drawn) [PGEE]
- first quantified in the receptor fluid after application [1]: 30 min
- permeability rate J diluted in water compared to neat [1]: double
- time to permeate previously frozen human skin [1]: ≤ 30 min
- Donor Chamber (percentage of applied dose) ([2]; 50:50 (aq)): 0.02%
- Receptor Chamber over 24 h (sum of receptor fluid collected at different time points) ([2]; 50:50 (aq)): 44.0%
- Recovery (percentage of applied dose) ([2]; 50:50 (aq)): 45.1%
- Receptor Chamber (percentage of applied dose) ([2]; 50:50 (aq)): 1.1%
- Donor Chamber (percentage of applied dose) ([2]; neat): 0.0003%
- Receptor Chamber over 24 h (sum of receptor fluid collected at different time points) ([2]; neat): 16.8%
- Recovery (percentage of applied dose) ([2]; neat): 17.3%
- Receptor Chamber (percentage of applied dose) ([2]; neat): 0.5%
- LogP [3]: 0.2

Compound: CCCOCC(C)O (stereo not drawn) [PGPE, propoxypropanol]
- first quantified in the receptor fluid after application [1]: 30 min
- permeability rate J diluted in water compared to neat [1]: four times greater; also recorded: more than four times quicker
- time to permeate previously frozen human skin [1]: ≤ 30 min
- Donor Chamber (percentage of applied dose) ([2]; 50:50 (aq)): 0.05%
- Receptor Chamber over 24 h (sum of receptor fluid collected at different time points) ([2]; 50:50 (aq)): 24.1%
- Recovery (percentage of applied dose) ([2]; 50:50 (aq)): 24.6%
- Receptor Chamber (percentage of applied dose) ([2]; 50:50 (aq)): 0.4%
- Donor Chamber (percentage of applied dose) ([2]; neat): 0.18%
- Receptor Chamber over 24 h (sum of receptor fluid collected at different time points) ([2]; neat): 9.4%
- Recovery (percentage of applied dose) ([2]; neat): 9.9%
- Receptor Chamber (percentage of applied dose) ([2]; neat): 0.3%
- LogP [3]: 0.7
